The values below come from a melting point compilation (Tetko et al.; mined from patent text by program, amines drawn as free bases though some values may be those of a salt).

What is called melting point is the temperature, or range, at which the solid turns liquid. In turn, `CC1(C)OC(c2ccc(S(C)(=O)=O)cc2)=C(c2cccc(C(F)(F)F)c2)C1=O` displayed a melting point of 115 to 116 °C. The same measure for `COC(=O)Cn1c(=O)c(=O)[nH]c2ccccc21`: 269 °C; for `CN(C)Cc1ccc2c(c1)Cc1c(-c3cccs3)n[nH]c1-2`: 204 to 206 °C; for `CCOc1cc2c(cc1OC)C(c1ccc(C(=O)N3CCOCC3)cc1)=N[C@@H]1CCOC[C@H]21`: 116 to 120 °C. On to `N#Cc1cnc2n(c1=O)CCC2`, for which the melting point lay within 119 to 121 °C.

For `CCCCOC(=O)c1ccc(N2CCN(CCCS(=O)(=O)O)CC2)cc1`, the melting point lay in the range of 232 to 234 °C. The compound `CN1CCN(c2ncccc2OC2CCN(c3ccc(Br)cc3)C2=O)CC1` (centres undefined) gave a melting point of 72 to 82 °C.

Compound `CC(C)CCN1C(=O)C(N)C(=O)N(CC23CC4CC(CC(C4)C2)C3)c2ccccc21` (centres undefined) returned a melting point of 218 to 219 °C. For `CC(C)(CO)NCC(=O)N1C[C@@H](F)C[C@H]1C#N` the value was 146 to 148 °C. For `CC(C)c1ccc(-n2c(CC(=O)O)c(C(=O)O)c3cc(Oc4ccc(Cl)cc4)ccc32)cc1` the value was 174 to 180 °C; for `N#CCCNC(=O)c1cccc(-c2cccc3nn(Cc4ccccc4)cc23)c1`, 143 to 144 °C. The same measure for `Cc1cccc(C)c1NC(=O)N1CC(C)(C)NC1=S`: 242 to 243 °C; for `CC(C)(C)COc1ccc(NC(=O)c2cc3ccccc3s2)cc1C#N`: 227 °C; for `COc1cc(OCCCCN2CCCN(CCCCOc3cc(OC)c(OC)c(OC)c3)CC2)cc(OC)c1OC`: 124 to 126 °C.

Take `O=C(O)CNC(=O)c1ccc(C(=O)NS(=O)(=O)c2ccc(C(=O)NCCc3ccccc3)cc2)cn1`: the melting point is 263 to 265 °C. The same measure for `Cc1ccc2c(Br)c(F)cc([N+](=O)[O-])c2n1`: 135 to 137 °C; for `O=C(Nc1ccc(Cl)nc1)N1CCc2ccccc2CC1`: 170 to 172 °C. For `Cc1nc2cc(NC(=O)c3ccco3)ccc2o1` the value was 156 to 158 °C. Compound `COc1ccc(CCOc2ccnc(-c3cccc(C(=O)O)c3)c2)cc1OC` had a melting point of 194 to 195 °C. Turning to `O=C(Nc1cccnc1)NC(NC(=O)c1ccccc1)C(Cl)(Cl)Cl` (centres undefined), the melting point was in the range of 214 to 215 °C. For `Cn1c(C(F)(F)F)nn(Cc2c(Cl)ccc(C(=O)O)c2Cl)c1=O` the value was 207 °C. The same measure for `CCCCCCCCCCCCCCCCCCOc1ccc2ccccc2c1`: 64 to 68 °C. `O=C(C(CCCl)c1ccccc1)N1CCCCCC1` (centres undefined) yielded a melting point of 50 to 53 °C. For `O=C1CSC(c2cccnc2)N1` (centres undefined) the value was 135 to 137 °C; for `CC(C)(C)OC(=O)n1cnc2c([N+](=O)[O-])cccc21`, 249 °C. In turn, `O=C(C#Cc1ccc(C(F)(F)F)cc1Cl)Nc1ccc2oc(CN3CCCC3)nc2c1` showed a melting point of 218 to 223 °C.

The compound `CCOC(=O)C(=NOC)C(C)=NNC(=O)OC(C)(C)C` showed a melting point of 144 to 145 °C. For `O=c1ccc(S(=O)(=O)c2cc3cc(Cl)cc(Cl)c3o2)n[nH]1` the value was 240 to 245 °C. The same measure for `N#CN1CCC(Nc2ncc3ncnc(Nc4ccc(F)c(Cl)c4)c3n2)CC1`: 245 to 247 °C; for `Cc1noc(NS(=O)(=O)c2ccccc2-c2ccc(-c3ncco3)cc2CN2CCc3ccccc3C2=O)c1C`: 127 to 135 °C; for `CC(C)(O)Cn1c(CO)nc2c(N)nc3cc(-c4cncc(CO)c4)cnc3c21`: 149 to 151 °C. The same measure for `CCC1SC(N(C)C(=O)NC)=NN1C(=O)C(C)(C)C` (centres undefined): 144 to 146 °C. `COc1c(C(=O)Nc2ccc(N(C(C)=O)S(C)(=O)=O)cc2)cc(N2CCC(=O)NC2=O)cc1C(C)(C)C`: the melting point was 228 to 229 °C. With `CN(C(=O)Nc1ccccc1F)C(Cl)C(Cl)(Cl)Cl` (centres undefined), the melting point is 130 to 141 °C. For `COc1ccc(S(=O)(=O)Nc2cccnc2Nc2ccc(OS(=O)(=O)c3ccc(OC)cc3)cc2)cc1` the value was 122 to 123 °C. For `Oc1ccc(-c2ncnc(C(F)(F)F)c2Cl)cc1` the value was 149 to 151 °C; for `CC(C)(C)C(O)(Cn1cncn1)C(=O)C=Cc1ccc(Cl)cc1` (centres undefined), 83 to 85 °C. For `SC1CCn2c(CCc3ccccc3)nc3cccc1c32` (centres undefined) the value was 75.7 to 78.8 °C; for `CC(C#CCOc1cccc(Oc2ccccc2)c1)N(O)C(N)=O` (centres undefined), 98 to 100 °C. Compound `OC1CCc2c(Cl)cc(Cl)cc2C1` (centres undefined) registered a melting point of 84 to 86 °C.

Take `CS(=O)(=O)c1ccc2[nH]c(=O)c(C#N)cc2c1`: the melting point was greater than 310 °C. The same measure for `Nc1c(Br)cc(C(=O)CBr)cc1Br`: 146 to 147 °C. The compound `Oc1ccc(-c2nc3ccc(O)cc3s2)cc1` returned a melting point of 284 to 286 °C. On to `Cc1ccc(S(=O)(=O)OCC2Cc3cccc(-c4ccc(F)c(Cl)c4)c3O2)cc1` (centres undefined), for which the melting point fell in the range of 104 to 108 °C. As to `CC(C)C[C@H](NC(=O)OC(C)(C)C)[C@H](O)CO`, the melting point fell in the range of 58 to 59 °C. For `Cc1cc(=O)[nH]c(SCc2ccccc2N(C)C)n1` the value was 152 to 154 °C. The same measure for `O=C(O)C1CCC(O)CC1` (centres undefined): 110 to 130 °C; for `CC1(C)OC(=S)Nc2ccc(-c3cc(Br)cc(OC(F)(F)F)c3)cc21`: 192 to 193 °C; for `Cc1c(-c2ccccc2)oc2c(COCCCl)cccc2c1=O`: 102 to 103 °C. The same measure for `C(#Cc1ccccn1)CCN1CC=C(c2ccccc2)CC1`: 87.5 to 88.5 °C.

With `S=c1cc(-c2ccc(Cl)cc2)ss1`, the melting point came to 135 °C. On to `COC(=O)c1ccc(NC(=O)c2ccc(-c3ccccc3)cc2)cc1`, for which the melting point is 247 to 251 °C.

Consider `CCOC(=O)c1ncn2c1c(=O)n(C)c1ncccc12`, for which the melting point fell in the range of 233 to 234 °C. The same measure for `CCc1cn2ccccc2c1S(=O)(=O)c1ccc(OS(=O)(=O)c2ccc(C)cc2)cc1`: 190 °C; for `Cc1oc(-c2ccccc2)nc1COc1ccc2c(-c3ccccc3)c(COc3nn(-c4ccccc4)cc3CO)oc2c1`: 118 to 119 °C. For `C=C(c1ccc(Br)cc1)c1ccc(N(C)C)cc1` the value was 126 to 127 °C; for `CCCOc1ccccc1-c1nc(O)cc(C(=O)O)n1`, 180 to 182 °C. The same measure for `COc1ccc2[nH]cc(CC(=O)N3C[C@@H]4[C@H](C3)[C@@](O)(c3ccccc3OC)[C@H](O)CC4(c3ccccc3)c3ccccc3)c2c1` (racemic): 204 to 206 °C. In turn, `Cc1nc2ccccc2n1-c1ccc(I)cc1` displayed a melting point of 136 to 137 °C.

Take `O=Cc1ccnc2ccc(Cl)cc12`: the melting point lay in the range of 152 to 153 °C. For `CC1CC2(C)C(CCC3C4CCC(C5(C)OCCO5)C4(C)CC(=O)C32)CC1=O` (centres undefined) the value was 168 to 169 °C; for `CCCCCCCCCCCCCCCCCCOc1cn(-c2ccc(OCc3ccccc3)cc2)c(CNCCCN(C)C)cc1=O`, 103 to 109 °C; for `COc1cc(COc2nn(Cc3ccccc3)cc2CO)ccc1OCc1nc(-c2ccccc2)oc1C`, 90 to 91 °C. The same measure for `CCN1C(=O)NC(Cc2c[nH]c3ccccc23)C1CCc1cc(C(F)(F)F)cc(C(F)(F)F)c1` (centres undefined): 228 to 230 °C. The same measure for `CC(=O)OCCc1nc2c(N)nc3ccccc3c2n1CC(C)C`: 187 to 189 °C. Consider `Cn1c(CC(=O)O)ccc1C(=O)c1ccccc1`, for which the melting point lay in the range of 144 to 145 °C. Turning to `Cc1scc2c1N(C(=O)N1CCCC(CCCN(C)C)C1)c1ccccc1NC2=O` (centres undefined), the melting point fell in the range of 137 to 139 °C. For `CN1CCC[C@H]1c1cnc(Cl)cc1C(O)c1cc(Cl)ncc1[C@@H]1CCCN1C` the value was 80 to 82 °C.

Turning to `CCOC(=O)C1=C(C)N=C(SCc2ccc(OC)cc2)N(C(=O)OCC)C1c1ccccc1OC` (centres undefined), the melting point lay within 116 to 118 °C. In turn, `CN1CCOc2cc3c(cc21)OCC31C(=O)N(CC2CCCO2)c2ccccc21` (centres undefined) showed a melting point of 138 to 140 °C.

Regarding `CC(C)(O)c1ccc(-c2cnc3c(n2)N(CCC2CCOCC2)CC(=O)N3)cc1`, the melting point was in the range of 210 to 212 °C. For `O=C(NC1CC1)C(O)=CC(=O)c1ccc(Cc2ccc(F)cc2)o1` the value was 116 to 117 °C; for `O=C1N(Cc2ccccn2)c2ccccc2C12COc1cc3nccnc3cc12` (centres undefined), 232 to 233 °C; for `CCc1oc2ccccc2c1C(=O)c1ccc(OCC(=O)O)cc1`, 172 to 175 °C. Compound `CN1CCC(Nc2nccc(Oc3ccc(NC(=O)c4cc(F)cc(N5CCOCC5)c4)c4ccccc34)n2)CC1` had a melting point of 128 to 129 °C. The same measure for `ClCc1cn2cccc(OCc3ccccc3)c2n1`: 163 °C.

As for `C=Cc1ccc(C(=O)Oc2ccc(C(=O)O)cc2)cc1C12CC3CC(CC(C3)C1)C2`, the melting point lay in the range of 86 to 87 °C. In the case of `Nc1ccc(C2=NN3CCCC3Cc3cc4c(cc32)OCO4)cc1` (centres undefined), the melting point lay in the range of 153 to 155 °C. For `CSC[C@H](N)C(=O)NC(C)=O` the value was 120 to 123 °C; for `CCOc1ccc(OCc2ccc(OCc3nc(-c4ccccc4)oc3C)cc2)cc1CCC(=O)O`, 129 to 130 °C; for `CCOC(=O)c1ccc(NC(=O)[C@H](CO)NS(=O)(=O)c2ccc(Cl)cc2)cc1`, 157 to 160 °C. For `CCOC(=O)N1CCc2nnc(N(C)N)cc2C1` the value was 121 to 123 °C; for `CC(O)c1ccc(-c2ccc3c(c2)CC(C(=O)O)O3)cc1` (centres undefined), 155 to 157 °C. The same measure for `COC(=O)CCC(=NO)C(C)(C)NCCCNC(C)(C)C(Cn1ccnc1[N+](=O)[O-])=NO`: 137 to 139 °C. Regarding `COCCOc1ccc(/C=C(\C)C(=O)O)c(Oc2ncc(Cl)cc2Cl)c1`, the melting point lay within 126 to 127 °C. For `CC1(C)C(=O)Oc2ccc(Br)cc21` the value was 55 to 56 °C; for `Cc1c(/C=C/C(=O)c2ccc3ccccc3c2)ncn1C(c1ccccc1)(c1ccccc1)c1ccccc1`, 194 to 197 °C. The same measure for `OCc1ccc(-c2c3ccccc3nn2Cc2ccccc2)cc1`: 148 to 149 °C; for `COC(=O)CCCOc1cc([N+](=O)[O-])c(COc2ccccc2)cc1OC`: 96 to 98 °C.
